What is called IC50 is the midpoint of a concentration-inhibition curve.

Here are results for five compounds from patent US20230118142A1, “AGENTS FOR USE IN THE TREATMENT OF TISSUE DAMAGE” (UCL BUSINESS LTD, priority 2020, published 2023).

The target of data set [1] is T1, CRP (Homo sapiens, UniProt P02741).
T1 sequence (P02741 19-224): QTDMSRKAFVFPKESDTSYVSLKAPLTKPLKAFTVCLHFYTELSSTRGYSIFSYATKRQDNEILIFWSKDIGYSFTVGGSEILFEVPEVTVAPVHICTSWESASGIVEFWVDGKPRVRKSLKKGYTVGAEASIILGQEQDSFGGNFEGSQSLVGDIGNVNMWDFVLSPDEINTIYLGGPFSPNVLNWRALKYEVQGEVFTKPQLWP
Put plainly: MIRA immunoturbidimetric assay. The class given is binding. Also on record: The final concentrations were 0.73 μM native pentameric CRP; from tissue. The text has this: The CRP immunoturbidimetric assay on the Roche COBAS MIRA Plus autoanalyser, utilises two different sized latex particles that are covalently coupled with two different monoclonal antibodies with specificity for different CRP epitopes (10). The assay was validated by Roche for measurement of native pentameric CRP, for which it has high sensitivity and specificity and a high upper detection limit; it was calibrated against a standard produced in our laboratory. Serendipitously, one of the assay's antibodies binds to an epitope present on the ligand binding B face of CRP. […]
CRP concentrations were measured in the presence and absence of ligands by the COBAS MIRA autoanalyser. […] CRP concentration was determined spectrophotometrically (Beckman Coulter DU 650) in quartz cuvettes with a 1 cm light path, by measuring A280 after correction for absorbance at 320 nm (light scattering) and using the measured absorption coefficient A(1%, 1 cm)=17.5 for human CRP (7). […]
Data are expressed as measured CRP (mg/L) against final total ligand concentration (M) and were plotted using Sigmaplot (V14) using the 4 parameter logistic curve y=min+(max−min)/(1+(x/EC50)^−Hill slope) to calculate EC50. Where appropriate, samples were also measured in whole normal human serum following the addition of a known amount of human CRP. […]

Data set [2] addresses T1, CRP. In words: Roche immunoturbidimetric assay: pure CRP. The class given is binding. Also on record: The final concentrations were 0.73 μM native pentameric CRP; from tissue. Conditions: pure CRP in TC buffer; read-out: IC50 (μM), SD; inhibition of Roche CRP immunoreactivity. The protocol: (i) Human CRP at ˜90 μg/ml (3.9 μM monomer or 0.78 μM pentamer) in TC buffer was prepared from a stock solution; a 75 μl aliquot was used in the assay.
(ii) Compounds were prepared from stock solutions at up to 10 mM in TC (labelled S1). They were serially diluted with TC buffer (100 μl ligand+200 μl TC) to provide up to 9 dilutions, S2-S10. A TC buffer control (S0) was included in each assay.
(iii) A 15 μl volume of each ligand solution was incubated with 75 μl of CRP for 1 h at 37° C. The final concentrations were CRP pentamer=0.73 μM, ligands S1-S10=625-0.03 μM, corresponding to ligand:CRP pentamer ratios of 853-0.04.
(iv) CRP concentrations were measured by the Roche microparticle-enhanced immunoturbidimetric assay (10) on the COBAS MIRA autoanalyser, and results expressed as a percentage of the CRP control.
(v) Data were plotted using Sigmaplot (V14) using the 4 parameter logistic curve y=min+(max−min)/(1+(x/EC50)^−Hill slope) to calculate EC50.
(vii) All compounds were assayed in comparison with a highly purified preparation of BPC8, that was prepared by Carbogen AMCIS AG, dissolved in sterile water and diluted into TC buffer as required.
The immunoturbidimetric CRP assay on the Roche COBAS MIRA Plus autoanalyser, utilises two different sized microparticles that are covalently coupled with two different monoclonal antibodies, which recognise different CRP epitopes. The assay was developed by Roche for clinical measurement of CRP serum and plasma with high sensitivity and a very wide dynamic range. Serendipitously, one of the two antibodies binds to an epitope present on the ligand binding B-face of CRP. Thus, when the binding pocket is occupied by ligand and, especially, when the B-face is occluded by the B-face to B-face interaction of two native CRP pentamers produced by cross linking via our unique bivalent ligands, the assay fails to detect the CRP. In contrast, the CRP is all detected and assayed normally by other assays that disrupt the crosslinking and/or use antibodies which recognise different, non-occluded, epitopes. Inhibition of CRP recognition in the Roche assay is thus a convenient tool to monitor the efficacy and potency of complex formation between our unique ligands and CRP.

Data set [3] has as its target T1, CRP. In words: In vivo clearance of CRP/ligand complexes generated in vivo in mice. Also noted: The final concentrations were 0.73 μM native pentameric CRP; from tissue. The protocol: (i) Two groups of 8 wild-type C57BL/6 mice (male; 23-27 weeks old) were used: group 1 (control) and group 2 (treated).
(§1) (ii) Both groups of animals were given 200 μl of human CRP (5 mg/ml in azide-free TC buffer) subcutaneously on day 1.
(iii) On day 2 (+18 h), control animals were given a 200 μl intravenous bolus of TC buffer. Treated animals were given a 200 μl iv bolus of ligand (prepared at 5 mg/ml in TC buffer).
(iv) One timed blood sample and a terminal blood sample were collected from each mouse into heparinised tubes and weighed. This generated data in quadruplicate at 4 time points, normally 30, 60, 120 and 360 minutes.
(v) ^125I radiolabel was measured (Perkin Elmer Wizard; protocol #1) in whole blood to quantify total CRP. In some cases, electroimmunoassay as above was also used to determine total CRP concentration.
(vi) Plasma was prepared and free CRP determined by Roche immunoassay.
(§2) Subcutaneous injection of human CRP provided circulating CRP concentrations with which to test for effects of our ligands in vivo. (Table 4).

Data set [4] has as its target T1, CRP. Put plainly: Size exclusion chromatography of CRP/ligand cross linking. The class given is binding. Also noted: The final concentrations were 0.73 μM native pentameric CRP; from tissue. Conditions: CRP/ligand complex re-chromatographed in absence of free ligand. The procedure:
(i) Ligands were diluted to 0.5 mM in TC buffer from up to 10 mM stocks. Serial dilutions were prepared as required. […]
(iii) The complex was chromatographed on a Superdex200 column (10/300 GL; 24 ml bed volume), connected to the ÅKTA100 Explorer HPLC system, and equilibrated and eluted in TC buffer at 0.5 ml/min. Eluates were monitored at 280 nm and fractions (0.5 ml) collected as required.
Size exclusion chromatography on a Superdex 200 column equilibrated and eluted with TC buffer pH 8.0, and calibrated with standard globular marker proteins and with human CRP, the native CRP pentamer (Mr 115 kDa) eluted at 13.9 ml (range 13.7-14.0 ml, n=10).
For orientation: In gel filtration, larger molecules generally elute earlier.

Data set [5] concerns the target T1, CRP. In words: In vivo clearance of preformed CRP/ligand complexes in mice. Also noted: from tissue. The procedure: (i) CRP at 1 mg/ml in azide-free TC buffer (containing, in some experiments, ˜10^6 cpm/ml of ^125I-CRP) was incubated with a 5-fold molar excess of ligand. A control (ligand-free) sample was also prepared. Cross linking of CRP was confirmed by SEC in TC buffer of a small sample of complex.
(ii) Two groups of eight wild-type C57BL/6 mice (male; 23-27 weeks old) were used.
The complex or control (200 μl, 200 μg CRP) was injected into the tail vein of each mouse. A single timed collection of blood was taken from the tail vain of each mouse; a second terminal sample was also collected. This yielded 4 samples each at 30, 60, 120 and 180 min for control and treated groups.
(iii) Blood samples were weighed and CRP measured in the Roche assay and, in some cases by electroimmunoassay (4, 13). ^125I-CRP was measured by gamma counting (Perkin Elmer Wizard; protocol #1).
Complexes were prepared in vitro using ^125I-labelled CRP and an excess of ligand, and the mixture was then injected intravenously into mice. Clearance of CRP was monitored by counting of the ^125I-CRP tracer and stable CRP-ligand complexes were detected by lack of CRP detection in the Roche assay of the plasma samples. The formation of CRP/ligand complexes was confirmed by size exclusion chromatography before use in each in vivo experiment.

Data set [6] can be described thus: Circulating CRP concentrations after subcutaneous CRP in mice. The class given is in vivo. Conditions: individual mice. The protocol: as §1, §2

Values joined by “and” are separate entries in the source; they are usually repeats but may differ in a detail not shown here. Equal values may be shown once.

For the compound `O=C(NC(C(=O)O)[C@H]1CN2CCC1CC2)c1ccc(C(=O)NC(C(=O)O)[C@H]2CN3CCC2CC3)cc1` (stereo partly drawn) [Compound P2B-B, (R,2R,2′R)-2,2′-(terephthaloylbis(azanediyl))bis(2-((R)-quinuclidin-3-yl)acetic acid)], the IC50 turned out to be 0.6 µM in data set [1] and 0.64 ± 0.17 µM in data set [2]. The “Time CRP:ligand complex generated in vivo was stable” value in data set [3] is “at least 1 hour”. In addition, the Stable to rechromatography entry in data set [4] was “Yes”.
With `O=C(NC([C@H]1CN2CCC1CC2)P(=O)(O)OCc1ccccc1)c1ccc(C(=O)NC([C@H]2CN3CCC2CC3)P(=O)(O)OCc2ccccc2)cc1` (some centres unmarked) [Compound P3A-C], the IC50 in data set [2] is 0.91 µM. Moreover, in data set [5] (complexes formed in vitro), the “Time complexes stable in vivo” value was “at least 6 hours”.
With `O=C(O)C(NC(=O)[C@H]1CC[C@H](C(=O)NC(C(=O)O)[C@H]2CN3CCC2CC3)CC1)[C@H]1CN2CCC1CC2` (stereo partly drawn) [Compound P2B-H, 2-[[4-[[-carboxy-[(3R)-quinuclidin-3-yl]methyl]carbamoyl]cyclohexanecarbonyl]amino]-2-[(3R)-quinuclidin-3-yl]acetic acid], in data set [2], the IC50 is 0.6 µM. The “Time complex generated in vivo was partially stable” value in data set [3] is “at least 3 hours”. The Stable to rechromatography result in data set [4] is recorded as “Yes”.
In the case of “CRP: Human C-reactive protein, isolated and purified, injected into mice”, the “Circulating CRP concentration” value in data set [6] (16 h after subcutaneous 1 mg CRP) is 58.2 mg/L and 69.2 mg/L; in data set [6] (18 h after subcutaneous 1 mg CRP), 44.0 mg/L and 57.2 mg/L; in data set [6] (24 h after subcutaneous 1 mg CRP), 24.0 mg/L and 32.2 mg/L. The “t1/2 of clearance of CRP” value in data set [5] (intravenous, 125I-CRP tracer) is ~2.17 h.
As for `O=C(NC(C(=O)O)[C@H]1CN2CCC1CC2)c1cccc(C(=O)NC(C(=O)O)[C@H]2CN3CCC2CC3)c1` (stereo partly drawn) [Compound P2B-E, 2-[[3-[[carboxy-[(3R)-quinuclidin-3-yl]methyl]carbamoyl]benzoyl]amino]-2-[(3R)-quinuclidin-3-yl]acetic acid], in data set [1], the midpoint of inhibition, the IC50, lay at 2.02 µM.
